# Reference: US10246451B2, “Propionic acid derivatives and methods of use thereof” (Aviara Pharmaceuticals, Inc., priority 2017, dated 2019)
# Molecular target: α4β1 integrin (Homo sapiens, UniProt P05556+P13612)
# Assay: a4b1 IC50 (inhibition of α4β1 integrin; no method described)
# Assay type: binding
# Sequence of α4β1 integrin (P13612 34-1032): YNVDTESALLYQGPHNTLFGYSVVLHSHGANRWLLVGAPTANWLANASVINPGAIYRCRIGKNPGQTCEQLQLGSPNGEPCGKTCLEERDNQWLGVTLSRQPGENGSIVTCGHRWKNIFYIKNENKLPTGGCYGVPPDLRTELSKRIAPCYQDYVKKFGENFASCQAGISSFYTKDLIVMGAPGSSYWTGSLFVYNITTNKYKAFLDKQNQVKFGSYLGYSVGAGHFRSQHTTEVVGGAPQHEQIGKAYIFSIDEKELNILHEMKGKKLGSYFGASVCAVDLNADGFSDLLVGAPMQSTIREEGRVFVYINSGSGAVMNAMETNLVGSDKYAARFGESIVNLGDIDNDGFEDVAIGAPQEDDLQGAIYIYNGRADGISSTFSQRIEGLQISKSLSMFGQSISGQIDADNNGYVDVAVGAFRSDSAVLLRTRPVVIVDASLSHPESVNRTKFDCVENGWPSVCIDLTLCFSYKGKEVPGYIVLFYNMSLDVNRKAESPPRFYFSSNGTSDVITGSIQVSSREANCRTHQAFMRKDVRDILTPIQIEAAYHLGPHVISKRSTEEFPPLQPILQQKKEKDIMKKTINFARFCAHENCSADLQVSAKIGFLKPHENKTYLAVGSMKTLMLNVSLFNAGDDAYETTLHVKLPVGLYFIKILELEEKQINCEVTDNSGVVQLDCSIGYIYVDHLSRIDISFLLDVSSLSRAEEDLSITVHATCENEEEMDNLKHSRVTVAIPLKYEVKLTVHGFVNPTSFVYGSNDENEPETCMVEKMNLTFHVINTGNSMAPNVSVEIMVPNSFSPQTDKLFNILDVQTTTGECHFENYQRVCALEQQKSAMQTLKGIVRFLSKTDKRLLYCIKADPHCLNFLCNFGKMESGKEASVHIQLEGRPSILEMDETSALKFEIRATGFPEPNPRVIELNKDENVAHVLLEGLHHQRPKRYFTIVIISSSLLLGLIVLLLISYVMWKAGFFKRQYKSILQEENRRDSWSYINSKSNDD
# Sequence of α4β1 integrin (P05556 21-798): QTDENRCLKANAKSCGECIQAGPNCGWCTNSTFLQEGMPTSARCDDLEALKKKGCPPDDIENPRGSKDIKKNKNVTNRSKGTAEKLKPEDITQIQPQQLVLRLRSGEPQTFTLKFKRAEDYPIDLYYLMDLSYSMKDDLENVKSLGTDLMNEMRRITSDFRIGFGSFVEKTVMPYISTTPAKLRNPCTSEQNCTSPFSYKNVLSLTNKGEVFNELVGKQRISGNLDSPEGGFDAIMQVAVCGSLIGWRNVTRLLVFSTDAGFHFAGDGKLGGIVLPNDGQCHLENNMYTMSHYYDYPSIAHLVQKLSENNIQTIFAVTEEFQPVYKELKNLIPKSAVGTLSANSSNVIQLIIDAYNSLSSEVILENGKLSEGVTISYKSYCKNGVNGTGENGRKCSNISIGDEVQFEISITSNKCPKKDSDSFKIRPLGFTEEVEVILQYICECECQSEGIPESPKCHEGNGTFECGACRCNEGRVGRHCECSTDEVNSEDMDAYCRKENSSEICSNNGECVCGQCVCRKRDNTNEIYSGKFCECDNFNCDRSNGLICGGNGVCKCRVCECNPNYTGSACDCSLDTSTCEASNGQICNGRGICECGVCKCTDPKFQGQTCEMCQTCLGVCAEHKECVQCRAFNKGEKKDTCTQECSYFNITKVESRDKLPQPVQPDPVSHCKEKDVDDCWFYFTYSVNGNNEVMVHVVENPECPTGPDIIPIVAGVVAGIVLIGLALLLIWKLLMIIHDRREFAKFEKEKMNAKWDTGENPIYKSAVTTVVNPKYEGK
row,SMILES,IC50
1,"Cc1cccc(Cc2cccc([C@H](CC(=O)O)NC(=O)Nc3c(O)ccn(C)c3=O)c2)c1 [Compound 3-83, sodium (S)-3-(3-(1-methyl-4-oxido-2-oxo-1,2-dihydropyridin-3-yl)ureido)-3-(3-(3-methylbenzyl)phenyl)propanoate]",< 200 nM
2,"Cc1cccc(Oc2cccc([C@H](CC(=O)O)NC(=O)Nc3c(O)ccn(C)c3=O)c2)c1 [Compound 3-84, sodium (S)-3-(3-(1-methyl-4-oxido-2-oxo-1,2-dihydropyridin-3-yl)ureido)-3-(3-(m-tolyloxy)phenyl)propanoate]",< 20 nM
3,"Cc1cn(C)c(=O)c(NC(=O)NC(CC(=O)O)c2cccc(Cc3ccc(Cl)cc3)c2)c1O (stereo not drawn) [Compound 1-26, sodium 3-(3-(4-chlorobenzyl)phenyl)-3-(3-(1,5-dimethyl-4-oxido-2-oxo-1,2-dihydropyridin-3-yl)ureido)propanoate]",> 200 nM
4,"Cc1ccc(Cc2ccc([C@H](CC(=O)O)NC(=O)Nc3c(O)ccn(C)c3=O)cc2)cc1 [Compound 3-79, sodium (S)-3-(3-(1-methyl-4-oxido-2-oxo-1,2-dihydropyridin-3-yl)ureido)-3-(4-(4-methylbenzyl)phenyl)propanoate]",> 200 nM
5,"Cc1ccc(Oc2cccc([C@H](CC(=O)O)NC(=O)Nc3c(O)ccn(C)c3=O)c2)cc1 [Compound 3-85, sodium (S)-3-(3-(1-methyl-4-oxido-2-oxo-1,2-dihydropyridin-3-yl)ureido)-3-(3-(p-tolyloxy)phenyl)propanoate]",< 20 nM
6,"COc1cccc(Oc2ccc([C@H](CC(=O)O)NC(=O)Nc3c(O)ccn(C)c3=O)cc2)c1 [Compound 3-73, sodium (S)-3-(4-(3-methoxyphenoxy)phenyl)-3-(3-(1-methyl-4-oxido-2-oxo-1,2-dihydropyridin-3-yl)ureido)propanoate]",< 200 nM
7,"Cn1ccc(O)c(NC(=O)N[C@@H](CC(=O)O)c2cccc(Cc3ccccc3C(F)(F)F)c2)c1=O [Compound 3-88, sodium (S)-3-(3-(1-methyl-4-oxido-2-oxo-1,2-dihydropyridin-3-yl)ureido)-3-(3-(2-(trifluoromethyl)benzyl)phenyl)propanoate]",< 20 nM
8,"Cn1ccc(O)c(NC(=O)N[C@@H](CC(=O)O)c2cccc(Cc3ccccc3F)c2)c1=O [Compound 3-93, sodium (S)-3-(3-(2-fluorobenzyl)phenyl)-3-(3-(1-methyl-4-oxido-2-oxo-1,2-dihydro-pyridin-3-yl)ureido)propanoate]",< 20 nM
9,"Cc1ccccc1C(F)(F)c1cccc([C@@H](CC(=O)O)NC(=O)Nc2c(O)ccn(C)c2=O)c1 [Compound 3-66, sodium (R)-3-(3-(difluoro(o-tolyl)methyl)phenyl)-3-(3-(1-methyl-4-oxido-2-oxo-1,2-dihydropyridin-3-yl)ureido)propanoate]",> 200 nM
10,"Cc1cn(C)c(=O)c(NC(=O)NC(CC(=O)O)c2cccc(Cc3cccc(Cl)c3)c2)c1O (stereo not drawn) [Compound 1-25, sodium 3-(3-(3-chlorobenzyl)phenyl)-3-(3-(1,5-dimethyl-4-oxido-2-oxo-1,2-dihydropyridin-3-yl)ureido)propanoate]",< 200 nM
11,"Cc1ccccc1Cc1cccc([C@H](CC(=O)O)NC(=O)Nc2c(O)ccn(C)c2=O)c1 [Compound 3-81, sodium (S)-3-(3-(1-methyl-4-oxido-2-oxo-1,2-dihydropyridin-3-yl)ureido)-3-(3-(2-methylbenzyl)phenyl)propanoate]",< 20 nM
12,"COc1ccccc1Oc1ccc([C@H](CC(=O)O)NC(=O)Nc2c(O)ccn(C)c2=O)cc1 [Compound 3-72, sodium (S)-3-(4-(2-methoxyphenoxy)phenyl)-3-(3-(1-methyl-4-oxido-2-oxo-1,2-dihydropyridin-3-yl)ureido)propanoate]",< 200 nM
13,"Cc1cccc(Cc2ccc([C@H](CC(=O)O)NC(=O)Nc3c(O)ccn(C)c3=O)cc2)c1 [Compound 3-78, sodium (S)-3-(3-(1-methyl-4-oxido-2-oxo-1,2-dihydropyridin-3-yl)ureido)-3-(4-(3-methylbenzyl)phenyl)propanoate]",> 200 nM
14,"Cc1ccc(Cc2cccc([C@H](CC(=O)O)NC(=O)Nc3c(O)ccn(C)c3=O)c2)cc1 [Compound 3-82, sodium (S)-3-(3-(1-methyl-4-oxido-2-oxo-1,2-dihydropyridin-3-yl)ureido)-3-(3-(4-methylbenzyl)phenyl)propanoate]",< 20 nM
15,"Cc1ccccc1Cc1ccc([C@H](CC(=O)O)NC(=O)Nc2c(O)ccn(C)c2=O)cc1 [Compound 3-77, sodium (S)-3-(3-(1-methyl-4-oxido-2-oxo-1,2-dihydropyridin-3-yl)ureido)-3-(4-(2-methylbenzyl)phenyl)propanoate]",< 200 nM
16,"Cc1ccccc1Cc1ccc([C@H](CC(=O)O)NC(=O)Nc2c(O)cc(C)n(C)c2=O)s1 [Compound 2-15, sodium (S)-3-(3-(1,6-dimethyl-4-oxido-2-oxo-1,2-dihydropyridin-3-yl)ureido)-3-(5-(2-methylbenzyl)thiophen-2-yl)propanoate]",≤ 20 nM
17,"COc1ccccc1Oc1ccc([C@H](CC(=O)O)NC(=O)Nc2c(O)cc(C)n(C)c2=O)cc1 [Compound 2-11, sodium (S)-3-(3-(1,6-dimethyl-4-oxido-2-oxo-1,2-dihydropyridin-3-yl)ureido)-3-(4-(2-methoxyphenoxy)phenyl)propanoate]",< 200 nM

row,SMILES,IC50
1,"Cc1ccccc1Cc1cccc([C@H](CC(=O)O)NC(=O)Nc2c(O)cc(C)n(C)c2=O)c1 [Compound 2-14, sodium (S)-3-(3-(1,6-dimethyl-4-oxido-2-oxo-1,2-dihydropyridin-3-yl)ureido)-3-(3-(2-methylbenzyl)phenyl)propanoate]",< 20 nM
2,"Cn1ccc(O)c(NC(=O)N[C@@H](CC(=O)O)c2cccc(Cc3ccc(C(F)(F)F)cc3)c2)c1=O [Compound 3-90, sodium (S)-3-(3-(1-methyl-4-oxido-2-oxo-1,2-dihydropyridin-3-yl)ureido)-3-(3-(4-(trifluoromethyl)benzyl)phenyl)propanoate]",< 20 nM
3,"Cc1ccccc1Cc1ccc([C@H](CC(=O)O)NC(=O)Nc2c(O)ccn(C)c2=O)s1 [Compound 3-95, sodium (S)-3-(3-(1-methyl-4-oxido-2-oxo-1,2-dihydropyridin-3-yl)ureido)-3-(5-(2-methylbenzyl)thiophen-2-yl)propanoate]",< 20 nM
4,"Cn1ccc(O)c(NC(=O)N[C@@H](CC(=O)O)c2ccc(Cc3ccccc3)s2)c1=O [Compound 3-96, sodium (S)-3-(5-benzylthiophen-2-yl)-3-(3-(1-methyl-4-oxido-2-oxo-1,2-dihydro-pyridin-3-yl)ureido)propanoate]",< 20 nM
5,"COc1cccc(Oc2ccc([C@H](CC(=O)O)NC(=O)Nc3c(O)cc(C)n(C)c3=O)cc2)c1 [Compound 2-12, sodium (S)-3-(3-(1,6-dimethyl-4-oxido-2-oxo-1,2-dihydropyridin-3-yl)ureido)-3-(4-(3-methoxyphenoxy)phenyl)propanoate]",< 200 nM
6,"Cc1cn(C)c(=O)c(NC(=O)N[C@@H](CC(=O)O)c2cccc(Cc3ccccc3)c2)c1O [Compound 1-23, sodium (S)-3-(3-benzylphenyl)-3-(3-(1,5-dimethyl-4-oxido-2-oxo-1,2-dihydropyridin-3-yl)ureido)propanoate]",< 200 nM
7,"Cc1ccccc1Oc1cccc([C@H](CC(=O)O)NC(=O)Nc2c(O)ccn(C)c2=O)c1 [Compound 3-67, sodium (S)-3-(3-(1-methyl-4-oxido-2-oxo-1,2-dihydropyridin-3-yl)ureido)-3-(3-(o-tolyloxy)phenyl)propanoate]",< 20 nM
8,"Cn1ccc(O)c(NC(=O)N[C@@H](CC(=O)O)c2cccc(Cc3ccccc3OC(F)F)c2)c1=O [Compound 3-91, sodium(S)-3-(3-(2-(difluoromethoxy)benzyl)phenyl)-3-(3-(1-methyl-4-oxido-2-oxo-1,2-dihydropyridin-3-yl)ureido) propanoate]",< 20 nM
9,COc1ccccc1Cc1cccc([C@H](CC(=O)O)NC(=O)Nc2c(O)ccn(C)c2=O)c1 [Compound 3-92],< 20 nM
10,"Cc1cn(C)c(=O)c(NC(=O)N[C@@H](CC(=O)O)c2ccc(Cc3ccccc3Cl)cc2)c1O [Compound 1-27, sodium (S)-3-(4-(2-chlorobenzyl)phenyl)-3-(3-(4-hydroxy-1,5-dimethyl-2-oxo-1,2-dihydropyridin-3-yl)ureido)propanoate]",> 200 nM
11,"COc1ccccc1Oc1cccc([C@H](CC(=O)O)NC(=O)Nc2c(O)ccn(C)c2=O)c1 [Compound 3-68, sodium (S)-3-(3-(2-methoxyphenoxy)phenyl)-3-(3-(1-methyl-4-oxido-2-oxo-1,2-dihydropyridin-3-yl)ureido)propanoate]",< 20 nM
12,"Cc1cn(C)c(=O)c(NC(=O)NC(CC(=O)O)c2cccc(Oc3ccccc3)c2)c1O (stereo not drawn) [Compound 1-21, sodium 3-(3-(1,5-dimethyl-4-oxido-2-oxo-1,2-dihydropyridin-3-yl)ureido)-3-(3-phenoxyphenyl)propanoate]",< 200 nM
13,"Cc1ccccc1Oc1ccc([C@H](CC(=O)O)NC(=O)Nc2c(O)ccn(C)c2=O)cc1 [Compound 3-74, sodium (S)-3-(3-(1-methyl-4-oxido-2-oxo-1,2-dihydropyridin-3-yl)ureido)-3-(4-(o-tolyloxy)phenyl)propanoate]",< 20 nM
14,"Cc1cccc(C)c1Cc1cccc([C@H](CC(=O)O)NC(=O)Nc2c(O)ccn(C)c2=O)c1 [Compound 3-94, sodium (S)-3-(3-(2,6-dimethylbenzyl)phenyl)-3-(3-(1-methyl-4-oxido-2-oxo-1,2-dihydropyridin-3-yl)ureido)propanoate]",< 20 nM
15,"Cn1ccc(O)c(NC(=O)N[C@@H](CC(=O)O)c2ccc(Cc3ccccc3)cc2)c1=O [Compound 3-76, sodium (S)-3-(4-benzylphenyl)-3-(3-(1-methyl-4-oxido-2-oxo-1,2-dihydropyridin-3-yl)ureido)propanoate]",< 20 nM
16,"Cc1cn(C)c(=O)c(NC(=O)NC(CC(=O)O)c2cccc(Cc3ccccc3Cl)c2)c1O (stereo not drawn) [Compound 1-24, sodium 3-(3-(2-chlorobenzyl)phenyl)-3-(3-(1,5-dimethyl-4-oxido-2-oxo-1,2-dihydropyridin-3-yl)ureido)propanoate]",< 200 nM
